{"source": "patent US20100035871A1", "about": "“BENZOXAZINE DERIVATIVES AND USES THEREOF” (priority 2006, published 2010)", "note": "Counter-ions that a name gives are not always drawn.", "data": [{"values": [{"smiles": "Cc1cc(Cl)ccc1-c1cc(F)cc2c1NC(CN)CO2", "note": "(racemic) (as salt: hydrochloride) [Example 63, 1-[5-(4-chloro-2-methylphenyl)-7-fluoro-3,4-dihydro-2H-1,4-benzoxazin-3-yl]methanamine]", "melting point": "90 °C (dec.)"}, {"smiles": "COc1ccc(-c2cc(F)cc3c2NC(CN)CO3)c(C)c1", "note": "(racemic) (as salt: hydrochloride) [Example 56, 1-[7-fluoro-5-(4-methoxy-2-methylphenyl)-3,4-dihydro-2H-1,4-benzoxazin-3-yl]methanamine]", "melting point": "82 °C (dec.)"}, {"smiles": "COc1ccccc1-c1cccc2c1OC(CN)CN2C", "note": "(racemic) (as salt: hydrochloride) [Example 1, 1-[8-(2-Methoxyphenyl)-4-methyl-3,4-dihydro-2H-1,4-benzoxazin-2-yl]methanamine]", "melting point": "90 °C (dec.)"}, {"smiles": "COc1ccc(-c2cc(Cl)cc3c2NC(CN)CO3)c(C)c1", "note": "(racemic) (as salt: hydrochloride) [Example 27, 1-[7-chloro-5-(4-methoxy-2-methylphenyl)-3,4-dihydro-2H-1,4-benzoxazin-3-yl]methanamine]", "melting point": "98 °C (dec.)"}, {"smiles": "NC[C@H]1CNc2cccc(-c3ccccc3F)c2O1", "note": "(as salt: hydrochloride) [Example 49, 1-[(2S)-8-(2-fluorophenyl)-3,4-dihydro-2H-1,4-benzoxazin-2-yl]methanamine]", "melting point": "190 °C (dec.)"}, {"smiles": "COc1ccc(-c2cc(Cl)cc3c2NC(CN)CO3)c(Cl)c1", "note": "(racemic) (as salt: hydrochloride) [Example 32, 1-[7-chloro-5-(2-chloro-4-methoxyphenyl)-3,4-dihydro-2H-1,4-benzoxazin-3-yl]methanamine]", "melting point": "105 °C (dec.)"}, {"smiles": "NC[C@H]1CNc2cccc(-c3ccccc3Cl)c2O1", "note": "(as salt: hydrochloride) [Example 39, 1-[(2S)-8-(2-chlorophenyl)-3,4-dihydro-2H-1,4-benzoxazin-2-yl]methanamine]", "melting point": "145 °C (dec.)"}, {"smiles": "CCCN1CC(CN)Oc2c(-c3ccccc3Cl)cccc21", "note": "(racemic) (as salt: hydrochloride) [Example 21, 1-[8-(2-Chlorophenyl)-4-propyl-3,4-dihydro-2H-1,4-benzoxazin-2-yl]methanamine]", "melting point": "83 to 85 °C"}, {"smiles": "NCC1COc2cc(Cl)cc(-c3ccc(C(F)(F)F)cc3C(F)(F)F)c2N1", "note": "(racemic) (as salt: hydrochloride) [Example 38, 1-{5-[2,4-bis(trifluoromethyl)phenyl]-7-chloro-3,4-dihydro-2H-1,4-benzoxazin-3-yl}methanamine]", "melting point": "98 °C (dec.)"}, {"smiles": "COc1ccc(-c2cccc3c2OC(CN)CN3)c(C)c1", "note": "(racemic) (as salt: hydrochloride) [Example 24, 1-[8-(4-Methoxy-2-methylphenyl)-3,4-dihydro-2H-1,4-benzoxazin-2-yl]methanamine]", "melting point": "230 to 232 °C"}, {"smiles": "COc1ccccc1-c1cc(Cl)cc2c1NC(CN)CO2", "note": "(racemic) (as salt: hydrochloride) [Example 34, 1-[7-chloro-5-(2-methoxyphenyl)-3,4-dihydro-2H-1,4-benzoxazin-3-yl]methanamine]", "melting point": "100 °C (dec.)"}, {"smiles": "NCC1COc2cc(Cl)cc(-c3ccccc3C(F)(F)F)c2N1", "note": "(racemic) (as salt: hydrochloride) [Example 25, 1-{7-Chloro-5-[2-(trifluoromethyl)phenyl]-3,4-dihydro-2H-1,4-benzoxazin-3-yl}methanamine]", "melting point": "102 °C (dec.)"}, {"smiles": "COc1ccc(-c2cc(Cl)cc3c2N(C)C(CN)CO3)c(C)c1", "note": "(racemic) (as salt: hydrochloride) [Example 28, 1-[7-chloro-5-(4-methoxy-2-methylphenyl)-4-methyl-3,4-dihydro-2H-1,4-benzoxazin-3-yl]methanamine]", "melting point": "106 °C (dec.)"}, {"smiles": "COc1ccccc1-c1cc(F)cc2c1NC(CN)CO2", "note": "(racemic) (as salt: hydrochloride) [Example 64, 1-[7-fluoro-5-(2-methoxyphenyl)-3,4-dihydro-2H-1,4-benzoxazin-3-yl]methanamine]", "melting point": "84 °C (dec.)"}]}]}
